Experimental data taken from patent US8178077B2, “Drug development target protein and target gene, and method of screening” (Reverse Proteomics Research Institute Co., Ltd., priority 2004, dated 2012).
Structures can show the parent of a compound that is named as a salt.

Biological target: T1, FLJ39196 clone-derived protein (human neurocalcin δ) (Homo sapiens, UniProt P61601)
T1 construct: A human full-length cDNA clone was expressed as a protein with an N-terminal His tag; His tag (N); made in house; host or cells: Escherichia coli BL21star(DE3)pLysS (pDEST17 Gateway expression plasmid)
Test: SEC/MS interaction analysis (size exclusion spin column and mass analysis) with FLJ39196 clone-derived protein
Assay type: binding
From the text: To analyze the interactions between commonly used drugs and proteins expressed from human full-length cDNA clones while keeping both the proteins and the compounds in non-modified, non-immobilized state, size exclusion chromatography (SEC) and mass analysis were used in combination (FIGS. 1, 2). The specific procedures are shown below.
The compound-protein mixture prepared in step 1 was subjected to chromatography using an SEC column, the compound and the protein were separated by SEC, and the compound that interacted with the bound compound or protein contained in the protein fraction was analyzed using a mass analyzer.
Protein concentrations were measured using BCA Protein Assay (PIERCE), in consideration of the purity calculated by SDS-PAGE.
Mass analysis was performed using LCQ DECA XP (Thermoelectron) or Q-TOFmicro (Micromass), equipped with an ESI probe. The LC pump used was Agilent 1100 (Yokogawa Analytical Systems), and the autosampler used was HTC-PAL (CTC Analytics) equipped with a cooling stacker.
In the SEC method using 384-well spin columns, Unifilter 100 (Whatman), packed with 10 μL (dry volume) of Bio-Gel P6 (BIO-RAD) and swollen with milliQ water, was used as the SEC column. 13.3 μL of a protein-free reference standard or a 25 μM protein standard and 0.7 μL of a multiplied liquid comprising 25 μM of each pharmaceutical compound (5% DMSO aqueous solution) were mixed; 9 μL of this mixture was aliquoted into the SEC spin columns. The SEC spin column was mounted on an acetonitrile-aliquoted 384-well U-bottom plate and centrifuged; the SEC spin column filtrate, which is a protein fraction, was retrieved in 50% acetonitrile. The protein precipitate produced by the acetonitrile was removed via centrifugation and filtration for deproteinization; the resulting filtrate was concentrated by centrifugation and re-dissolved in 10 μL of 50% methanol to obtain a mass analysis sample. The mobile phase supplied to the mass analyzer was 0.1% formic acid/50% methanol solution in the positive ion mode, and 0.1% ammonia/50% methanol solution in the negative ion mode; these mobile phases were used at a flow rate of 40 μL/min. 2-μL of mass analysis samples were injected using an autosampler at 2-minute intervals; the mass spectral intensity of the compound was measured to obtain the spectral intensity of the pharmaceutical compound contained in the SEC spin column filtrate (protein fraction eluted from SEC).

[1] = protein 0 μM (protein-free reference), compound 1 μM
[2] = protein 0 μM (protein-free reference), compound 10 μM
[3] = protein 0 μM (protein-free reference), compound 100 μM
[4] = protein 0 μM (protein-free reference), compound 250 μM
[5] = protein 23.75 μM, compound 1 μM
[6] = protein 23.75 μM, compound 10 μM
[7] = protein 23.75 μM, compound 100 μM
[8] = protein 23.75 μM, compound 250 μM
[9] = protein 47.5 μM, compound 10 μM
[10] = protein 47.5 μM, compound 100 μM
[11] = protein 47.5 μM, compound 250 μM

SMILES	spectral intensity of the compound in the SEC spin column filtrate (protein fraction) [1]	spectral intensity of the compound in the SEC spin column filtrate (protein fraction) [2]	spectral intensity of the compound in the SEC spin column filtrate (protein fraction) [3]	spectral intensity of the compound in the SEC spin column filtrate (protein fraction) [4]	spectral intensity of the compound in the SEC spin column filtrate (protein fraction) [5]	spectral intensity of the compound in the SEC spin column filtrate (protein fraction) [6]	spectral intensity of the compound in the SEC spin column filtrate (protein fraction) [7]	spectral intensity of the compound in the SEC spin column filtrate (protein fraction) [8]	spectral intensity of the compound in the SEC spin column filtrate (protein fraction) (protein 47.5 μM, compound 1 μM)	spectral intensity of the compound in the SEC spin column filtrate (protein fraction) [9]	spectral intensity of the compound in the SEC spin column filtrate (protein fraction) [10]	spectral intensity of the compound in the SEC spin column filtrate (protein fraction) [11]
CN1CCC(=C2c3ccccc3Sc3ccccc32)CC1 [Pimethixene]	2913965	4868887	58800844	224525009	2449690	5737072	121577640	265475649	2762592	9271060	197624997	359356100
O=C(c1ccc(OCCN2CCCCC2)cc1)c1c(-c2ccc(O)cc2)sc2cc(O)ccc12 [Raloxifene hydrochloride]	3754698	2330594	7909682	10553153	3790373	6024709	124641622	157539770	3014448	17385466	122918120	666932700
COC(=O)[C@H]1[C@H]2C[C@@H]3c4[nH]c5cc(OC)ccc5c4CCN3C[C@H]2C[C@@H](OC(=O)/C=C/c2cc(OC)c(OC)c(OC)c2)[C@@H]1OC [Rescinnamine]	9843174	6544896	12903374	7315419	11269941	21895843	215933519	288844471	17653515	40677751	675671326	1469409087
CCCCCCCCNC(C)C(O)c1ccc(SC(C)C)cc1 (stereo not drawn) [Suloctidil]	6080126	3684060	4969067	9177432	4318261	7828150	163940015	357100809	5977944	7209043	507388292	742015343
CCOC(=O)Oc1c(OC)cc(C(=O)O[C@@H]2C[C@@H]3CN4CCc5c([nH]c6cc(OC)ccc56)[C@H]4C[C@@H]3[C@H](C(=O)OC)[C@H]2OC)cc1OC [Syrosingopine]	38126829	47209784	41362697	38512184	63594361	101347281	465474678	596250311	70443152	105524442	897067633	1499127775
Clc1ccc(C(OCCN2CCCCC2)c2ccccc2)cc1 (stereo not drawn) [chloperastine]	2920008	13165487	276180260	803023959	2972794	9288224	218420294	773924506	4085344	18612563	338617522	1411536255
CC(C)/N=c1\cc2n(-c3ccc(Cl)cc3)c3ccccc3nc-2cc1Nc1ccc(Cl)cc1 [clofazimine]	1592610	3306068	1781607	1742291	2041846	15886830	138678443	380425425	2399851	57730302	312686548	411373516
CCc1cc2c(s1)N(C)C(=O)CN=C2c1ccccc1Cl [clotiazepam]	8089543	19826757	251469420	633414607	8254340	25038949	283452799	759706893	9022620	60448900	657940514	1089985810
C[C@]12Cc3c[nH]nc3C[C@@H]1CC[C@@H]1[C@@H]2CC[C@@]2(C)[C@H]1CC[C@]2(C)O [stanozolol]	3108300	2749518	3830491	4150230	3620481	10223886	127989356	194560574	3989532	25533379	619287498	778914733
